Our source for the IC50 and EC50 values is patent US7932262B2 (Novartis AG, priority 2006, dated 2011).

As usually defined, the IC50 is the concentration that gives 50% inhibition.

The target of one assay is T1, PDK1 kinase (Homo sapiens, UniProt O15530).
T1 sequence (O15530 1-556): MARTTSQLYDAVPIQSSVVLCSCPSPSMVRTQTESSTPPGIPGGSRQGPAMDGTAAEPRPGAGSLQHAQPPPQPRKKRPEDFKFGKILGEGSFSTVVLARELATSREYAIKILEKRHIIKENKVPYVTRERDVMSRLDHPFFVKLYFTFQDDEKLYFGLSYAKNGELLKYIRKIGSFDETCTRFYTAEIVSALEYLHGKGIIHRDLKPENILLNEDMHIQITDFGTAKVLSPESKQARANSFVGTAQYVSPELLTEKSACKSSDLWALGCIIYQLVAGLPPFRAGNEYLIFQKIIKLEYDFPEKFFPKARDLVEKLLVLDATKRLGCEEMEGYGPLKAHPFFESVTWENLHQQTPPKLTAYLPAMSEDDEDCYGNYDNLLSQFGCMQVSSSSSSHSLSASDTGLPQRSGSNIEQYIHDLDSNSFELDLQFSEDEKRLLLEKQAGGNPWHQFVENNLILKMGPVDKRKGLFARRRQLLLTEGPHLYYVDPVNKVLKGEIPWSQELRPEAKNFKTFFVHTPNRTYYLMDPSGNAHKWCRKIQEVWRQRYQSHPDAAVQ
The experiment in a line: PDK1 Kinase Alpha Screen Assay. The assay is classed as biochemical. Conditions: PDK1 Kinase Alpha Screen Assay; read-out: PDK1 IC50. The gist of the method:
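PDK1, 10 uM ATP, 50 nM biotin-PDK1-4 peptide; 50 mM Tris pH 7.5, 10 mM MgCl2, 0.1% BSA, 0.01% Tween-20, 2 mM DTT, 2.5% DMSO; 3-18 h. EDTA stop; AlphaScreen, phospho-Ser/Thr antibody, overnight RT.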

In a further assay the test system is A2780 cells. Kind of assay: Cell Proliferation Assay (Cell Titer Glo), A2780. It is filed as cell-based. Conditions: Homo sapiens; Cell Proliferation Assay, A2780; read-out: CPEC50 A2780. The gist of the method: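 Following a 3-day compound exposure (37° C., 5% CO2) of A2780 or PC3MM cells plated at 1000 per well, viability was measured by Cell Titer Glo luminescence in fresh medium, read 10 min after reagent addition.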

Regarding `CC(C)(C(N)=O)C(=O)NCCOc1cccc2cnc(Nc3ccccc3)nc12` [Compound 508, 2,2-dimethyl-N1-(2-(2-(phenylamino)quinazolin-8-yloxy)ethyl)malonamide], at PDK1 kinase, the IC50 is 5 to 10 µM. Further, the EC50 in the assay with A2780 cells was in the range of 5 to 10 µM.

As to `NS(=O)(=O)c1ccc(Nc2ncc3cccc(OCCN4CCOCC4)c3n2)cc1` [Compound 510, 4-(8-(2-mropholinoethoxy)quinazolin-2-ylamino)benzenesulfonamide], at PDK1 kinase, the IC50 is less than 5 µM. Moreover, the EC50 with A2780 cells is less than 5 µM.

With `NC(=O)c1cccc(COc2cccc3cnc(Nc4ccc(S(N)(=O)=O)cc4)nc23)c1` [Compound 513, 3-((2-(4-sulfamoylphenylamino)quinazolin-8-yloxy)methyl)benzamide], the IC50 on PDK1 kinase is less than 5 µM. For the same compound, the EC50 with A2780 cells is less than 5 µM.

On to `CC(=O)Nc1ccc(COc2cccc3cnc(Nc4ccc(S(N)(=O)=O)cc4)nc23)cc1` [Compound 514, N-(4-((2-(4-sulfamoylphenylamino)quinazolin-8-yloxy)methyl)phenyl)acetamide], for which the IC50 at PDK1 kinase is less than 5 µM. Besides, in the assay on A2780 cells, the EC50 is less than 5 µM.

Consider `CNC(=O)c1ccc(Nc2ncc3cccc(OC(C)C)c3n2)cc1` [Compound 515, 4-(8-isopropoxyquinazolin-2-ylamino)-N-methylbenzamide], for which the IC50 at PDK1 kinase is less than 5 µM. Also, in the assay on A2780 cells, the EC50 was less than 5 µM.

As for `CC(C)NC(=O)c1ccc(Nc2ncc3cccc(OC(C)C)c3n2)cc1` [Compound 516, 4-(8-isopropoxyquinazolin-2-ylamino)-N-isopropylbenzamide], at PDK1 kinase, the IC50 is less than 5 µM. For the same compound, the EC50 in the assay with A2780 cells is less than 5 µM.

For `CNS(=O)(=O)c1ccc(Nc2ncc3cccc(OC(C)C)c3n2)cc1` [Compound 517, 4-(8-isopropoxyquinazolin-2-ylamino)-N-methylbenzenesulfonamide], the IC50 at PDK1 kinase was less than 5 µM. Moreover, the EC50 in the assay with A2780 cells is less than 5 µM.

In the case of `NS(=O)(=O)c1ccc(Nc2ncc3cccc(OCC(=O)N4CCOCC4)c3n2)cc1` [Compound 518, 4-(8-(2-morpholino-2-oxoethoxy)quinazolin-2-ylamino)benzenesulfonamide], the 50% inhibitory concentration (IC50) at PDK1 kinase fell in the range of 5 to 10 µM. For the same compound, in the assay on A2780 cells, the EC50 is 5 to 10 µM.

`CC(C)Oc1cccc2cnc(Nc3ccc(S(C)(=O)=O)cc3)nc12` [Compound 554, 8-isopropoxy-N-(4-(methylsulfonyl)phenyl)quinazolin-2-amine]: the IC50 at PDK1 kinase was less than 5 µM. For the same compound, the EC50 with A2780 cells was less than 5 µM.

In the case of `CC(C)Oc1cccc2cnc(Nc3cccc(S(C)(=O)=O)c3)nc12` [Compound 555, 8-isopropoxy-N-(3-(methylsulfonyl)phenyl)quinazolin-2-amine], the IC50 on PDK1 kinase was less than 5 µM. Moreover, in the assay on A2780 cells, the EC50 is less than 5 µM.

Consider `CC(C)Oc1cccc2cnc(Nc3cccc(S(N)(=O)=O)c3)nc12` [Compound 556, 3-(8-isopropoxyquinazolin-2-ylamino)benzenesulfonamide], for which the IC50 at PDK1 kinase is less than 5 µM. Further, in the assay with A2780 cells, the EC50 is less than 5 µM.

Regarding `NS(=O)(=O)c1ccc(Nc2ncc3ccc(C(=O)O)cc3n2)cc1` [Compound 559, 2-(4-sulfamoylphenylamino)quinazoline-7-carboxylic acid], the IC50 on PDK1 kinase was less than 5 µM. In addition, in the assay on A2780 cells, the EC50 lay in the range of 5 to 10 µM.

On to `CNC(=O)c1ccc2cnc(Nc3ccc(S(N)(=O)=O)cc3)nc2c1` [Compound 561, N-methyl-2-(4-sulfamoylphenylamino)quinazoline-7-carboxamide], for which the IC50 at PDK1 kinase was less than 5 µM. Further, the EC50 in the assay on A2780 cells is less than 5 µM.

In the case of `Cc1cc(S(N)(=O)=O)ccc1Nc1ncc2cccc(OC(C)C)c2n1` [Compound 562, 4-(8-isopropoxyquinazolin-2-ylamino)-3-methylbenzenesulfonamide], the IC50 on PDK1 kinase is 10 to 25 µM. In addition, the EC50 with A2780 cells is less than 5 µM.

Turning to `NC(=O)c1ccc2cnc(Nc3ccc(S(N)(=O)=O)cc3)nc2c1` [Compound 564, 2-(4-sulfamoylphenylamino)quinazoline-7-carboxamide], the IC50 on PDK1 kinase was less than 5 µM. Besides, in the assay with A2780 cells, the EC50 was less than 5 µM.
